# What was measured:
# male C57Bl/6N mice = assay: In vivo functional response to muscle injury (eccentric contraction-induced); design: species or system mouse
# Procedure: FIG. 1. Effect of different doses of an H-PGDS inhibitor, Example 16, on limb force following eccentric (lengthening) contraction-induced muscle injury in normal C57Bl6/N mice. Doses were administered 10 minutes prior to damage and QD thereafter.
# In Vivo Assays for Functional Response to Muscle Injury
# Under anesthesia, the right hind limb of a mouse is restrained at the knee and the foot attached to a motorized footplate/force transducer. Needle electrodes are inserted into the upper limb, either side of the sciatic nerve and a current sufficient to elicit a maximal muscle contraction is applied. Muscle tension is produced by moving the footplate to lengthen the plantarflexor muscles while the limb is under maximal stimulation. This is repeated 60 times to fatigue the muscles of the lower limb. Anesthesia, limb immobilization and limb stimulation are then repeated at regular intervals to measure maximal isometric force in the recovering limb. 7 to 9 animals are tested for each test condition.
# human H-PGDS = molecular target: T1, human H-PGDS (Homo sapiens, UniProt O60760); assay: H-PGDS RapidFire high throughput mass spectrometry assay; type: biochemical; settings: inhibition of conversion of PGH2 to PGD2 by H-PGDS; mean pIC50; read-out: Potency Range (mean pIC50) (converted)
# T1 construct: Full length human H-PGDS cDNA (Invitrogen Ultimate ORF IOH13026) was amplified by PCR; 6-His (N); TEV protease cleavage site (N); made in house; host or cells: E. coli BL21 (DE3*) for H-PGDS; Sf9 insect cells (baculovirus) for COX-2
# T1 sequence (O60760 whole entry): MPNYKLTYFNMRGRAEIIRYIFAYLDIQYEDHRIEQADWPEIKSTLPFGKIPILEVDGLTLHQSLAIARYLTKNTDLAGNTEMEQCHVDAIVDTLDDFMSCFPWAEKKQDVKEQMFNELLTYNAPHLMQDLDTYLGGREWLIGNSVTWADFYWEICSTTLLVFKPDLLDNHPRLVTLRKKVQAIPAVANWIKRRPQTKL
# How it was run: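 Full-length His-tagged human H-PGDS from E. coli converted PGH2, generated in situ (~10 μM burst) from arachidonic acid by FLAG-tagged human COX-2 (Sf9-expressed). PGD2 and PGF2α (substrate surrogate) were measured by RapidFire SPE-triple quadrupole MS. Percent conversion was calculated, and inhibition was taken as reduced conversion.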
smiles,measurement,setting,value
"CC1(C)C[C@H](NC(=O)c2cnc(-c3cc(F)cc(Cl)c3)s2)C(=O)N1 (single isomer, unassigned) [Example 16]",protection from strength loss (maximal isometric torque) 24 hours after injury,"male C57Bl/6N mice; male C57Bl/6N mice, PO immediately prior to eccentric contraction challenge",dose-dependent protection from strength loss
same,restoration of muscle function after 9 days,"male C57Bl/6N mice; male C57Bl/6N mice, repeat dosing (QD) PO, all doses greater than 0.1 mg/kg",full restoration of muscle function
same,limb force / functional repair following eccentric contraction-induced limb muscle injury (FIG. 1),"male C57Bl/6N mice; normal C57Bl6/N mice, doses 10 minutes prior to damage and QD thereafter",Accelerates Functional Repair
same,IC50,human H-PGDS,10.2 to 100 nM

# — patent publication US20220009918A1, “Chemical Compounds” (GlaxoSmithKline Intellectual Property Development Limited, priority 2018, published 2022)
